Data reported in patent publication US10617680B2 (CELGENE QUANTICEL RESEARCH, INC., priority 2017, dated 2020).
Where two headings read alike, the source gives them in different places.

Tests used:
[1] = target: CBP (Homo sapiens (Human), UniProt Q92793); assay: In vitro CBP inhibition (AlphaScreen, biotinylated H4-tetraacetyl peptide); assay type: binding
Method in brief: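 His-tagged CBP expressed in E. coli (50 nM final) incubated with biotinylated H4K5/8/12/16(Ac) peptide (20 nM final) in 50 mM HEPES pH 7.3, 10 mM NaCl, 0.25 mM TCEP, 0.1% BSA, 0.005% Brij-35, 0.4% DMSO, 20 min at room temp.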

[2] = target: BRD4 (Homo sapiens (Human), UniProt O60885); assay: In vitro enzyme inhibition assay - BRD4 inhibition; assay type: binding; conditions: BRD4 BD1, Table 30
[3] = AlphaScreen, Table 29, read-out: CBP IC50
[4] = Table 30, read-out: CRREBBP IC50

Chain of CBP (Q92793 1081-1197): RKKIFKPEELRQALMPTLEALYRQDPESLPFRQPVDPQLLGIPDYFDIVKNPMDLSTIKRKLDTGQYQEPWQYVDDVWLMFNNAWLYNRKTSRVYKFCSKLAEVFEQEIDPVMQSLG

| IC50 [1, 3] [nM] | IC50 [1, 4] [nM] | IC50 [2] [nM] | Compound |
| --- | --- | --- | --- |
| < 500 | < 500 | 500 to 5000 | CCNc1ncc(-c2cc(=O)n(C)cc2-c2cnn(-c3ccccc3C#N)c2)cn1 [Example 323, 2-(4-(4-(2-(ethylamino)pyrimidin-5-yl)-1-methyl-6-oxo-1,6-dihydropyridin-3-yl)-1H-pyrazol-1-yl)benzonitrile] |
| < 500 | < 500 | > 5000 | Cn1cc(-c2cnn(-c3ccccc3C(=O)O)c2)c(-c2ccccc2)cc1=O [Example 223, 2-[4-(1-Methyl-6-oxo-4-phenyl-1,6-dihydro-pyridin-3-yl)-pyrazol-1-yl]-benzoic acid] |
| < 500 | < 500 | > 5000 | Cn1cc(-c2cnn(-c3ccccc3S(C)(=O)=O)c2)c(-c2ccc(Cl)cc2)cc1=O [Example 286, 4-(4-Chloro-phenyl)-5-[1-(2-methanesulfonyl-phenyl)-1H-pyrazol-4-yl]-1-methyl-1H-pyridin-2-one] |
| < 500 |  |  | CCOc1ccc(-c2cc(=O)n(C)cc2-c2cnn(-c3ccccc3C#N)c2)cn1 [Example 234, 2-[4-(6-Ethoxy-1′-methyl-6′-oxo-1′,6′-dihydro-[3,4′]bipyridinyl-3′-yl)-pyrazol-1-yl]-benzonitrile] |
| < 500 |  |  | Cn1cc(-c2cnn(-c3ccccc3C#N)c2)c(-c2ccc(C(=O)O)cc2)cc1=O [Example 217, 4-{5-[1-(2-Cyano-phenyl)-1H-pyrazol-4-yl]-1-methyl-2-oxo-1,2-dihydro-pyridin-4-yl}-benzoic acid] |
| < 500 |  |  | CC(C)Nc1ccc(-c2cc(=O)n(C)cc2-c2cnn(-c3cccc(Cl)c3C#N)c2)cn1 [Example 339, 2-chloro-6-[4-[4-[6-(isopropylamino)-3-pyridyl]-1-methyl-6-oxo-3-pyridyl]-pyrazol-1-yl]benzonitrile] |
| < 500 |  |  | CCc1cc(-c2cnn(-c3ccccc3C#N)c2)cn(C)c1=O [Example 256, 2-[4-(5-Ethyl-1-methyl-6-oxo-1,6-dihydro-pyridin-3-yl)-pyrazol-1-yl]-benzonitrile] |
| < 500 |  |  | Cn1cc(-c2cnn(-c3cccc(C4CC4)c3C#N)c2)c(-c2ccn(CC3CC3)c(=O)c2)cc1=O [Example 381, 2-cyclopropyl-6-[4-[4-[1-(cyclopropylmethyl)-2-oxo-4-pyridyl]-1-methyl-6-oxo-3-pyridyl]pyrazol-1-yl]benzonitrile] |
| < 500 |  |  | COc1ccc(C#N)c(-n2cc(-c3cn(C)c(=O)cc3-c3ccc(=O)[nH]c3)cn2)c1 [Example 260, 4-Methoxy-2-[4-(1′-methyl-6,6′-dioxo-1,6,1′,6′-tetrahydro-[3,4′]bipyridinyl-3′-yl)-pyrazol-1-yl]-benzonitrile] |
| < 500 |  |  | COc1ccc(C#N)c(-n2cc(-c3cn(C)c(=O)cc3-c3ccc(F)cc3)cn2)c1 [Example 263, 2-{4-[4-(4-Fluoro-phenyl)-1-methyl-6-oxo-1,6-dihydro-pyridin-3-yl]-pyrazol-1-yl}-4-methoxy-benzonitrile] |
| < 500 |  |  | CN(C)c1ncc(-c2cc(=O)n(C)cc2-c2cnn(-c3cccc(F)c3C#N)c2)cn1 [Example 334, 2-[4-[4-[2-(dimethylamino)pyrimidin-5-yl]-1-methyl-6-oxo-3-pyridyl]pyrazol-1-yl]-6-fluoro-benzonitrile] |
| < 500 |  |  | CCOc1cc(=O)n(C)cc1-c1cnn(-c2cccc(C#N)c2)c1 [Example 251, 3-(4-(4-ethoxy-1-methyl-6-oxo-1,6-dihydropyridin-3-yl)-1H-pyrazol-1-yl)benzonitrile] |
| < 500 |  |  | Cn1cc(-c2cnn(-c3cccc(Cl)c3C#N)c2)c(-c2ccc(OC(F)F)nc2)cc1=O [Example 354, 2-chloro-6-(4-(6-(difluoromethoxy)-1′-methyl-6′-oxo-1′,6′-dihydro-[3,4′-bipyridin]-3′-yl)-1H-pyrazol-1-yl)benzonitrile] |
| < 500 |  |  | Cn1ccc(-c2cc(=O)n(C)cc2-c2cnn(-c3cccc(C4CC4)c3C#N)c2)cc1=O [Example 380, 2-cyclopropyl-6-[4-[1-methyl-4-(1-methyl-2-oxo-4-pyridyl)-6-oxo-3-pyridyl]pyrazol-1-yl]benzonitrile] |

The remaining lines, values behind:

| Compound | IC50 [1, 3] [nM] | IC50 [1, 4] [nM] | IC50 [2] [nM] |
| --- | --- | --- | --- |
| Cn1cc(-c2cnn(Cc3ccccc3)c2)c(N2CC[C@@H](C(=O)O)C2)cc1=O [Example 74, (R)-1-(5-(1-benzyl-1H-pyrazol-4-yl)-1-methyl-2-oxo-1,2-dihydro-pyridin-4-yl)pyrrolidine-3-carboxylic acid] | < 500 | < 500 | > 5000 |
| CC(c1ccccc1)n1cc(-c2cn(C)c(=O)cc2N2CCCC2)cn1 (stereo not shown) [Example 41, 1-methyl-5-(1-(1-phenylethyl)-1H-pyrazol-4-yl)-4-(pyrrolidin-1-yl) pyridin-2(1H)-one] | < 500 | < 500 | 500 to 5000 |
| Cc1cc(-c2cc(=O)n(C)cc2-c2cnn(Cc3ccccc3)c2)[nH]n1 [Example 115, 5-(1-benzyl-1H-pyrazol-4-yl)-1-methyl-4-(3-methyl-1H-pyrazol-5-yl) pyridin-2(1H)-one] | < 500 | < 500 | > 5000 |
| Cn1cc(-c2cnn(Cc3ccccc3)c2)c(-c2ccon2)cc1=O [Example 121, 5-(1-benzyl-1H-pyrazol-4-yl)-4-(isoxazol-3-yl)-1-methyl-pyridin-2(1H)-one] | < 500 | < 500 | > 5000 |
| CC(c1ccccc1)n1cc(-c2cn(C)c(=O)cc2N2CCOCC2)cn1 (stereo not shown) [Example 43, 1-methyl-4-morpholino-5-(1-(1-phenylethyl)-1H-pyrazol-4-yl) pyridin-2(1H)-one] | < 500 | < 500 | 500 to 5000 |
| Cn1cc(-c2cnn(Cc3ccccc3)c2)c(-n2ccnc2)cc1=O [Example 94, 5-(1-benzyl-1H-pyrazol-4-yl)-4-(1H-imidazol-1-yl)-1-methyl-pyridin-2(1H)-one] | < 500 | < 500 | > 5000 |
| Cn1cc(-c2cnn(C3CCN(S(C)(=O)=O)CC3)c2)c(-c2ccccc2)cc1=O [Example 127, 1-methyl-5-(1-(1-(methyl-sulfonyl)-piperidin-4-yl)-1H-pyrazol-4-yl)-4-phenylpyridin-2(1H)-one] | < 500 |  |  |
| Cc1cc(-c2cnn(C(c3ccccc3)C3CC3)c2)cn(C)c1=O (stereo not shown) [Example 18, 5-(1-(cyclopropyl (phenyl)methyl)-1H-pyrazol-4-yl)-1,3-dimethyl-pyridin-2(1H)-one] |  |  | 500 to 5000 |
| Cc1c(-c2cn(C)c(=O)cc2-c2ccccc2)cnn1C [Example 164, 5-(1,5-dimethyl-1H-pyrazol-4-yl)-1-methyl-4-phenylpyridin-2(1H)-one] | 500 to 5000 |  |  |
| Cn1cc(-c2cnn(-c3ccccc3C#N)c2)c(-c2cccc(Cl)c2)cc1=O [Example 216, 2-{4-[4-(3-Chloro-phenyl)-1-methyl-6-oxo-1,6-dihydro-pyridin-3-yl]-pyrazol-1-yl}-benzonitrile] | < 500 |  |  |
| COc1cc(=O)n(C)cc1-c1cnn(C(C)c2ccccc2)c1 (stereo not shown) [Example 175, 4-methoxy-1-methyl-5-(1-(1-phenylethyl)-1H-pyrazol-4-yl) pyridin-2(1H)-one] | < 500 |  |  |
| Cc1nn(C)c(C)c1-c1cn(C)c(=O)cc1-c1ccccc1 [Example 145, 1-methyl-4-phenyl-5-(1,3,5-tri-methyl-1H-pyrazol-4-yl) pyridin-2(1H)-one] | 500 to 5000 |  |  |
| Cc1cc(=O)n(C)cc1-c1cnn(Cc2ccccc2)c1 [Example 7, 5-(1-benzyl-1H-pyrazol-4-yl)-1,4-dimethyl-pyridin-2(1H)-one] | < 500 |  |  |
| Cn1cc(-c2cnn(CC3CC3)c2)c(-c2ccccc2)cc1=O [Example 146, 5-(1-(cyclopropyl-methyl)-1H-pyrazol-4-yl)-1-methyl-4-phenyl-pyridin-2(1H)-one] | < 500 |  |  |
| Cc1cc(-c2cnn(C(C)c3cccc(C(F)F)c3)c2)cn(C)c1=O (stereo not shown) [Example 11, 5-(1-(1-(3-(difluoro-methyl)phenyl)ethyl)-1H-pyrazol-4-yl)-1,3-dimethylpyridin-2(1H)-one] | < 500 |  |  |
| Cn1cc(-c2cnn(-c3ccccc3C#N)c2)c(C2CC2)cc1=O [Example 207, 2-[4-(4-Cyclopropyl-1-methyl-6-oxo-1,6-dihydro-pyridin-3-yl)-pyrazol-1-yl]-benzonitrile] | < 500 |  |  |
| COc1ccc(-c2cc(=O)n(C)cc2-c2cnn(CC3CC3(F)F)c2)cc1 (stereo not shown) [Example 191, 5-[1-(2,2-Difluoro-cyclopropylmethyl)-1H-pyrazol-4-yl]-4-(4-methoxy-phenyl)-1-methyl-1H-pyridin-2-one] | < 500 |  |  |
| CCOc1cc(=O)n(C)cc1-c1cnn(Cc2ccc(-c3cn[nH]c3)cc2)c1 [Example 103, 4-ethoxy-1-methyl-5-{1-[4-(1H-pyrazol-4-yl)-benzyl]-1H-pyrazol-4-yl}-1H-pyridin-2-one] | < 500 |  |  |
| Cn1cc(-c2cnn(Cc3ccccc3)c2)c(N2CC[C@@H](NS(=O)(=O)C(F)(F)F)C2)cc1=O [Example 173, (R)-N-(1-(5-(1-benzyl-1H-pyrazol-4-yl)-1-methyl-2-oxo-1,2-dihydropyridin-4-yl)pyrrolidin-3-yl)-1,1,1-trifluoromethanesulfonamide] | 500 to 5000 |  |  |
| Cn1cc(-c2cc(=O)n(C)cc2-c2cnn(-c3ccccc3C#N)c2)cn1 [Example 204, 2-{4-[1-Methyl-4-(1-methyl-1H-pyrazol-4-yl)-6-oxo-1,6-dihydro-pyridin-3-yl]-pyrazol-1-yl}-benzonitrile] | < 500 |  |  |
| CCOc1cc(=O)n(C)cc1-c1cnn(Cc2ccccc2)c1 [Example 64, 5-(1-benzyl-1H-pyrazol-4-yl)-4-ethoxy-1-methylpyridin-2(1H)-one] | < 500 |  |  |
| C[C@@H](c1ccccc1)n1cc(-c2cn(C)c(=O)cc2N2CCCC2)cn1 [Example 47, (S)-1-methyl-5-(1-(1-phenylethyl)-1H-pyrazol-4-yl)-4-(pyrrolidin-1-yl)pyridin-2(1H)-one] | < 500 |  |  |
| Cn1cc(-c2cnn(Cc3ccccc3)c2)c(-c2ccccn2)cc1=O [Example 131, 5′-(1-benzyl-1H-pyrazol-4-yl)-1′-methyl-[2,4′-bipyridin]-2′(1′H)-one] | 500 to 5000 |  |  |
